Data: US10668047B2, “Aziridine containing DNA alkylating agents” (priority 2015, dated 2020)
Read-outs that look alike come from different tables or passages of the source.

Test system: H460 non-cell lung cancer human tumor cell line
Test: In vitro human tumor cell line cytotoxicity (proliferation) assay, AlamarBlue
Assay type: cell-based
Experimental: IC50 values are reported in micromolar and result from exposure of compound at various concentrations for 2 hrs followed by a wash step and addition of fresh media followed by growth and cell viability staining and comparison to a media only treated control.
Specifically, exponentially growing cells are seeded at a density of 4×10^3 cells per well in a 96 well plate and incubated at 37° C. in 5% CO2, 95% air and 100% relative humidity for 24 hours prior to addition of test compounds. Compounds are solubilized in 100% DMSO at 200 times the desired final test concentration. At the time of drug addition, compounds are further diluted to 4 times the desired final concentration with complete medium. Aliquots of 50 μl of compound at specified concentrations are added to microtiter wells already containing 150 μl of medium, resulting in the final drug concentration reported. After drug addition, the plates are incubated for an additional 2 hours at 37° C., 5% CO2, 95% air, and 100% relative humidity, then the drug is washed off and fresh medium is added and the plates are incubated for addition 70 hrs at 37° C., 5% CO2, 95% air and 100% relative humidity. At the end of this incubation, the viable cells are quantified using the AlamarBlue assay. The drug concentration resulting in growth inhibition of 50% (IC50) is calculated using Prism software (Irvine, Calif.), and the results are listed in the table.

[1] = Homo sapiens, NCI-H460, H460 cells, under air, 2 hrs exposure, wash, then 70 hrs growth, read-out: IC50 (air)
[2] = Homo sapiens, NCI-H460, H460 cells, under nitrogen, 2 hrs exposure, wash, then 70 hrs growth, read-out: IC50 (N2)
[3] = Homo sapiens, NCI-H460, read-out: IC50 (N2), H460 cells, under nitrogen, 2 hrs exposure, wash, then 70 hrs growth
[4] = Homo sapiens, NCI-H460, read-out: IC50 (air), H460 cells, under air, 2 hrs exposure, wash, then 70 hrs growth
[5] = H460 cells, under air, 2 hrs exposure, wash, then 70 hrs growth, read-out: IC50 (air)
[6] = H460 cells, under nitrogen, 2 hrs exposure, wash, then 70 hrs growth, read-out: IC50 (N2)

Row | SMILES | IC50 [1] [µM] | IC50 [2] [µM] | also measured
1 | Cc1cccc([N+](=O)[O-])c1COP(=O)(N1CC1)N1CC1 [compound 2588] | 10 | 1.3 | –
2 | CC(OP(=O)(N1CC1)N1CC1)c1ccc([N+](=O)[O-])cc1F (centres unmarked) [compound 2706] | 14 | 0.03 | –
3 | CC(OP(=O)(N1CC1)N1CC1)c1ccc([N+](=O)[O-])c(N(C)CCN2CCOCC2)c1 (centres unmarked) [compound 2757] | – | – | IC50 [3]: 3.8 µM; IC50 [4]: 380 µM
4 | CC(OP(=O)(N1CC1)N1CC1)c1ccc([N+](=O)[O-])c(-c2cccc(C(F)(F)F)c2)c1 (centres unmarked) [compound 2802] | 22 | 2.8 | –
5 | Cn1c([N+](=O)[O-])nc(C(F)F)c1COP(=O)(N1CC1)N1CC1 [compound 2137] | 2.2 | 0.02 | –
6 | Cc1nccn1-c1cc(C(C)OP(=O)(N2CC2)N2CC2)c(F)cc1[N+](=O)[O-] (centres unmarked) [compound 2755] | 4.4 | 0.03 | –
7 | CC(OP(=O)(N1CC1)N1CC1)c1ccc([N+](=O)[O-])c(N2CCOCC2)c1 (centres unmarked) [compound 2695] | 130 | 4.2 | –
8 | CC(OP(=O)(N1CC1)N1CC1)c1ccc([N+](=O)[O-])c(Nc2ccccc2)c1 (centres unmarked) [compound 2693] | 1.9 | 0.4 | –
9 | Cn1c([N+](=O)[O-])cnc1COP(=O)(N1CC1)N1CC1 [compound 2136] | 24 | 0.1 | –
10 | CC(C)C(OP(=O)(N1CC1)N1CC1)c1ccc([N+](=O)[O-])cc1 (centres unmarked) [compound 2572] | 29 | 1.6 | –
11 | CC(OP(=O)(N1CC1)N1CC1)c1ccc([N+](=O)[O-])o1 (centres unmarked) [compound 2138] | 0.3 | 0.006 | –
12 | CC(OP(=O)(N1CC1)N1CC1)c1ccc([N+](=O)[O-])c(N2CCCCC2)c1 (centres unmarked) [compound 2696] | 310 | 7.4 | –
13 | O=[N+]([O-])c1ccccc1C(OP(=O)(N1CC1)N1CC1)c1ccccc1 (centres unmarked) [compound 2563] | 15 | 3.2 | –
14 | CC(OP(=O)(N1CC1)N1CC1)c1cc(-n2cnc(CO)c2)c([N+](=O)[O-])cc1F (centres unmarked) [compound 2760] | 53 | 2.4 | –
15 | CC(C)C(OP(=O)(N1CC1)N1CC1)c1ncc([N+](=O)[O-])n1C (centres unmarked) [compound 2568] | – | – | IC50 [5]: 350 µM; IC50 [6]: 0.3 µM
16 | CC(OP(=O)(N1CC1)N1CC1)c1ccc([N+](=O)[O-])c(-c2ccc(C(F)(F)F)cc2)c1 (centres unmarked) [compound 2774] | 3.5 | 0.8 | –
17 | CC(C)C(OP(=O)(N1CC1)N1CC1)c1nc(Br)c([N+](=O)[O-])n1C (centres unmarked) [compound 2624] | 160 | 0.5 | –
18 | COc1ccc(COP(=O)(N2CC2)N2CC2)c([N+](=O)[O-])c1 [compound 2589] | 9.6 | 0.1 | –
19 | CCCC(OP(=O)(N1CC1)N1CC1)c1ccc([N+](=O)[O-])cc1OC (centres unmarked) [compound 2595] | 3.2 | 0.2 | –
20 | Cn1c(C(OP(=O)(N2CC2)N2CC2)C(F)(F)F)cnc1[N+](=O)[O-] (centres unmarked) [compound 2118] | 6.2 | 0.01 | –

Row | SMILES | IC50 [1] [µM] | IC50 [2] [µM] | also measured
21 | CC(OP(=O)(N1CC1)N1CC1)c1ccc([N+](=O)[O-])c(N)c1 (centres unmarked) [compound 2692] | 6.2 | 2.7 | –
22 | C=CCCn1c([N+](=O)[O-])cnc1COP(=O)(N1CC1)N1CC1 [compound 2582] | 18 | 0.1 | –
23 | CC(OP(=O)(N1CC1)N1CC1)c1ccccc1[N+](=O)[O-] (centres unmarked) [compound 2547] | 320 | 2.6 | –
24 | Cc1ccccc1-c1cc(C(C)OP(=O)(N2CC2)N2CC2)ccc1[N+](=O)[O-] (centres unmarked) [compound 2800] | 30 | 1.3 | –
25 | CC(OP(=O)(N1CC1)N1CC1)c1ccc([N+](=O)[O-])c(-c2ccc(C#N)cc2)c1 (centres unmarked) [compound 2775] | 2.5 | 0.3 | –
26 | CC(OP(=O)(N1CC1)N1CC1)c1ccc([N+](=O)[O-])c(-n2cnc3ccccc32)c1 (centres unmarked) [compound 2737] | 21 | 0.2 | –
27 | CC(OP(=O)(N1CC1)N1CC1)c1ccc([N+](=O)[O-])c(-n2ccnc2)c1 (centres unmarked) [compound 2804] | – | – | IC50 [5]: 310 µM; IC50 [6]: 0.6 µM
28 | Cn1c([N+](=O)[O-])cnc1C(OP(=O)(N1CC1)N1CC1)C1CC1 (centres unmarked) [compound 2520] | 20 | 8.8 | –
29 | CCCCC(CCCC)C(OP(=O)(N1CC1)N1CC1)c1ncc([N+](=O)[O-])n1C (centres unmarked) [compound 2645] | 30 | 1.6 | –
30 | CC(OP(=O)(N1CC1)N1CC1)c1ccc([N+](=O)[O-])c(N(C)CCN(C)C)c1 (centres unmarked) [compound 2736] | 150 | 2.8 | –
31 | CC(OP(=O)(N1CC1)N1CC1)c1ccc([N+](=O)[O-])c(-n2cccn2)c1 (centres unmarked) [compound 2748] | 38 | 0.3 | –
32 | CC(OP(=O)(N1CC1)N1CC1)c1ccc([N+](=O)[O-])c(NS(C)(=O)=O)c1 (centres unmarked) [compound 2726] | 19 | 0.2 | –
33 | CC(C)C(OP(=O)(N1CC1)N1CC1)c1ncc([N+](=O)[O-])n1C(C)C (centres unmarked) [compound 2604] | 320 | 0.7 | –
34 | O=[N+]([O-])c1ccc2c(c1)CCCC2OP(=O)(N1CC1)N1CC1 (centres unmarked) [compound 2675] | 3.4 | 0.05 | –
35 | CCc1nc([N+](=O)[O-])n(C)c1COP(=O)(N1CC1)N1CC1 [compound 2119] | 0.9 | 0.03 | –
36 | CCCCn1c([N+](=O)[O-])cnc1COP(=O)(N1CC1)N1CC1 [compound 2594] | 7.4 | 0.15 | –
37 | CC(OP(=O)(N1CC1)N1CC1)c1ccc([N+](=O)[O-])c(-n2cnc(C(C)(C)C)c2)c1 (centres unmarked) [compound 2759] | 100 | 0.4 | –
38 | Cn1c([N+](=O)[O-])nc(-c2cc(Cl)c(Cl)s2)c1COP(=O)(N1CC1)N1CC1 [compound 2525] | 0.7 | 0.02 | –
39 | Cn1c([N+](=O)[O-])nc(-c2ccco2)c1COP(=O)(N1CC1)N1CC1 [compound 2141] | 0.5 | 0.08 | –
40 | CCN(CC)c1cc(C(C)OP(=O)(N2CC2)N2CC2)c(F)cc1[N+](=O)[O-] (centres unmarked) [compound 2730] | 22 | 0.7 | –

Row | SMILES | IC50 [1] [µM] | IC50 [2] [µM] | also measured
41 | O=[N+]([O-])c1ccc(COP(=O)(N2CC2)N2CC2)c(-c2ccccc2)c1 [compound 2626] | 3.3 | 0.6 | –
42 | CC(OP(=O)(N1CC1)N1CC1)c1ccc([N+](=O)[O-])c(-n2cncn2)c1 (centres unmarked) [compound 2727] | 31 | 0.2 | –
43 | CC(OP(=O)(N1CC1)N1CC1)c1ccc([N+](=O)[O-])c(-n2ccc3ncccc32)c1 (centres unmarked) [compound 2763] | 5 | 0.1 | –
44 | CC(OP(=O)(N1CC1)N1CC1)c1ccc([N+](=O)[O-])c(N2CCN(Cc3cnc([N+](=O)[O-])n3C)CC2)c1 (centres unmarked) [compound 2756] | – | – | IC50 [3]: 2.8 µM; IC50 [4]: 45 µM
45 | C=Cc1nc([N+](=O)[O-])n(C)c1COP(=O)(NCCBr)N1CC1 (centres unmarked) [compound 2130] | – | – | IC50 [3]: 0.005 µM; IC50 [4]: 1.3 µM
46 | CC(OP(=O)(N1CC1)N1CC1)c1cc(-n2ccnc2)c([N+](=O)[O-])cc1F (centres unmarked) [compound 2731] | 13 | 0.1 | –
47 | CC(OP(=O)(N1CC1)N1CC1)c1ccc([N+](=O)[O-])c(-c2ccccc2)c1 (centres unmarked) [compound 2785] | 47 | 1.6 | –
48 | CC(OP(=O)(N1CC1)N1CC1)c1ccc([N+](=O)[O-])c(CF)c1 (centres unmarked) [compound 2822] | 3.1 | 0.3 | –
49 | CC(OP(=O)(N1CC1)N1CC1)c1cc(-n2cnc3ccccc32)c([N+](=O)[O-])cc1F (centres unmarked) [compound 2744] | 2.7 | 0.05 | –
50 | Cc1ccc(-c2cc(C(C)OP(=O)(N3CC3)N3CC3)ccc2[N+](=O)[O-])cc1 (centres unmarked) [compound 2789] | 36 | 2.4 | –
51 | CCCC(OP(=O)(N1CC1)N1CC1)c1c(C)cccc1[N+](=O)[O-] (centres unmarked) [compound 2610] | 350 | 51 | –
52 | CC(OP(=O)(N1CC1)N1CC1)c1ccc([N+](=O)[O-])c(-n2c(N)nc3ccccc32)c1 (centres unmarked) [compound 2798] | 32 | 0.6 | –
53 | CC(C)C(OP(=O)(N1CC1)N1CC1)c1ncc([N+](=O)[O-])n1CCO (centres unmarked) [compound 2658] | 86 | 0.3 | –
54 | O=[N+]([O-])c1ccc(COP(=O)(N2CC2)N2CC2)cc1F [compound 2666] | 24 | 2 | –
55 | CCCCCCCCN(C)c1cc(C(C)OP(=O)(N2CC2)N2CC2)ccc1[N+](=O)[O-] (centres unmarked) [compound 2735] | 3.1 | 2 | –
56 | CC(OP(=O)(N1CC1)N1CC1)c1ccc([N+](=O)[O-])c(N2CCN(C(C)C)CC2)c1 (centres unmarked) [compound 2751] | 36 | 1.7 | –
57 | Cc1cc([N+](=O)[O-])ccc1COP(=O)(N1CC1)N1CC1 [compound 2556] | 17 | 0.7 | –
58 | CC(OP(=O)(N1CC1)N1CC1)c1ccc([N+](=O)[O-])c(C(F)(F)F)c1 (centres unmarked) [compound 2613] | 26 | 0.3 | –
